Laboratory results published in patent US4137414A, “5-Substituted-2-phenylbenzo[b]thiophene-3-alkylamines and related compounds” (G. D. Searle & Co., priority 1977, dated 1979).
Values after ≈ are worked out from the molar mass of the structure shown. Where a name gives a salt, the structure may show the parent alone. Read-outs that look alike come from different tables or passages of the source.

Tests used:
[1] = system: Escherialla coli ATCC 8739; assay: Anti-bacterial assay against aerobic bacteria (serial dilution in nutrient broth); type: cell-based; conditions: no growth of organism; aerobic incubation 20-24 hr. at 37° C.; tested at 100, 10, 1, 0.1 mcgm per ml; read-out: active (minimum concentration at which a compound is active)
Experimental: Evidence of the anti-bacterial utility of the instant compounds vis-a-vis aerobic bacteria is provided by the following standardized test. Nutrient broth (manufactured by Baltimore Biological Laboratories) is prepared by recommended by the manufacturer, sterilized, and inoculated with Escherialla coli ATCC 8739 q.s. one million cells per ml, determined spectrophotometrically. Meanwhile, compound is heated in sterile distilled water at a concentration of 1000 mcgm per ml for 20 minutes at 80° C. This compound preparation is serially diluted and mixed with sufficient inoculated medium to afford concentrations of 100, 10, 1, and 0.1 mcgm of compound per ml. The mixtures thus obtained are incubated aerobically for 20-24 hr. at 37° C. and then examined grossly for growth of the organism. Controls are provided by concurrent incubations identical with the above except that (1) reference standards (4.3, 0.43, 0.043, and 0.0043 mcgm per ml of streptomycin sulfate and 6667, 667, 67, and 7 units of potassium penicillin G) are substituted for compound and (2) neither compound nor reference standard is present. Compounds are considered active if, at the maximum concentrations tested, no growth of organism is observed and no aberrancy is apparent in respect of the controls. Potency is expressed as the minimum concentration at which a compound is active.

[2] = target: dopamine receptors (3H-dopamine sites); assay: Receptor Binding Assay: stereospecific binding of 3H-dopamine to calf caudate membranes; conditions: displacement of 5nM 3H-dopamine; calf caudate membrane homogenate; 37° C., 15 minutes
Experimental: (§1) The procedure for this assay is as follows:
(§2) Calf caudate nuclei were dissected from freshly obtained brains and stored frozen at -76° C.
(§3) Test compounds were added as 20 μl aliquots from stock solutions prepared in absolute ethanol or 0.1% ascorbic acid.
(§4) Immediately following all incubations, proteins were recovered on Whatman GF/B glass fiber filters under reduced pressure. Trapped membranes were solubilized off the filters using 1 ml NCS tissue solubilizer (Amersham/Searle Corp.) at 50° C. for 1 hour. Then, pH was adjusted by adding 0.1 ml glacial acetic acid, 10 ml PCS (Amersham/Searle) added and samples analyzed for membrane-bound radioactivity using a Mark II liquid scintillation counter (Searle Analytical, Inc.).
(§5) IC50 values were determined from log-probit plots using 4-6 concentrations of each compound.
(§6) There as two indications from the assay data as to whether a compound is a probable neuroleptic. Firstly, it must be a dopamine antagonist. […] In other words, it must have a high ^3 H-DA/^3 H-HALO, IC50 ratio.

[3] = target: T1, dopamine receptors (3H-Haloperidol sites) (Bos taurus, UniProt P20288); conditions: for antagonist ratios: in words, compared with known neuroleptics
T1 sequence (P20288 whole entry): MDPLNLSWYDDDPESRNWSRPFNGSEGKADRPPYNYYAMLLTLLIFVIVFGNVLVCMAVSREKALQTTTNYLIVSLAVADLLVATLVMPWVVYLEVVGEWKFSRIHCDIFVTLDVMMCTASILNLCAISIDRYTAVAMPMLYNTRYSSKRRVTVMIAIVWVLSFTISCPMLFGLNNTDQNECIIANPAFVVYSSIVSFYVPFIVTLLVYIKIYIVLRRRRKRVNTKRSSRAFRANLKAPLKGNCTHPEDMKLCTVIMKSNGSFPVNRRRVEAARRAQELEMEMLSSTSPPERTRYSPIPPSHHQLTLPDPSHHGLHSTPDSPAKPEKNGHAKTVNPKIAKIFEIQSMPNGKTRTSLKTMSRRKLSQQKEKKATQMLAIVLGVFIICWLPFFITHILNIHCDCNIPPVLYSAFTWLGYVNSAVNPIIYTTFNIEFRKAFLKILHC
Experimental: as §1, §2, §3, §4, §5, §6

[4] = target: T1, dopamine receptors (3H-Haloperidol sites); assay: biochemical
Experimental: as §1, §2, §3, §4, §5, §6

| Structure (SMILES) | MIC [1] | IC50 [2] | IC50 [4] | Ratio (^3 H-DA/^3 H-HALO IC50 ratio) [3] | Ratio (^3 H-DA/^3 H-HALO IC50 ratio) ([3]; IC50 3H-dopamine / IC50 3H-Haloperidol, high ratio indicates dopamine antagonist) | antagonist ratios [3] |
| --- | --- | --- | --- | --- | --- | --- |
| CN1CCN(CCc2c(-c3ccccc3)sc3ccc(Cl)cc23)CC1 [1-[3-(5-chloro-2-phenylbenzo[b]thiophen-3-yl)ethyl]-4-methylpiperazine dihydrochoride] | 10 mg/L (≈ 27 µM) | – | – | – | – | – |
| CN1CCN(CCCc2c(-c3ccccc3)sc3ccc(Cl)cc23)CC1.Cl.Cl [1-[3-(5-chloro-2-phenylbenzo[b]thiophen-3-yl)propyl]-4-methylpiperazine dihydrochloride] | 100 mg/L | – | – | – | – | – |
| Cl.Clc1ccc2sc(-c3ccccc3)c(CCN3CCCC3)c2c1 [1[2-(5-chloro-2-phenylbenzo[b]thiophen-3-yl)ethyl]pyrrolidine hydrochloride] | – | 48 µM | 0.65 µM | – | 74 | comparable to clozapine and chloropromazine |
| CN(C)CCc1c(-c2ccccc2)sc2ccc(Cl)cc12 [5-chloro-2-phenylbenzo[b]thiophene-3-N,N-dimethylethanamine hydrochloride] | 100 mg/L | 20 µM | 0.65 µM | 31 | – | comparable to clozapine and chloropromazine |
| Cl.NCCc1c(-c2ccccc2)sc2ccc(Cl)cc12 [5-chloro-2-phenylbenzo[b]thiophene-3-ethanamine hydrochloride] | 10 mg/L | – | – | – | – | – |

Second part, led by results:

| MIC [1] | IC50 [2] | IC50 [4] | Ratio (^3 H-DA/^3 H-HALO IC50 ratio) [3] | Structure (SMILES) | Ratio (^3 H-DA/^3 H-HALO IC50 ratio) ([3]; IC50 3H-dopamine / IC50 3H-Haloperidol, high ratio indicates dopamine antagonist) | antagonist ratios [3] |
| --- | --- | --- | --- | --- | --- | --- |
| 100 mg/L | – | – | – | OCCN1CCN(Cc2c(-c3ccccc3)sc3ccc(Cl)cc23)CC1 [1-[(5-chloro-2-phenylbenzo[b]thiophen-3-yl)methyl]-4-ethanol piperazine dihydrochloride] | – | – |
| – | 12 µM | 0.62 µM | 21 | CN(C)CCc1c(-c2ccccc2)sc2ccccc12 [2-phenylbenzo[b]thiophene-3-N,N-dimethylethanamine hydrochloride] | – | comparable to clozapine and chloropromazine |
| – | 6 µM | 0.12 µM | 50 | CCN(CC)CCc1c(-c2ccccc2)sc2ccc(Cl)cc12 [5-chloro-2-phenylbenzo[b]thiophene-3-N,N-diethylethanamine hydrochloride] | – | comparable to clozapine and chloropromazine |
| – | 48 µM | 0.35 µM | 137 | CN(C)CCCc1c(-c2ccccc2)sc2ccc(Cl)cc12 [5-chloro-2-phenylbenzo[b]thiophene-3-N,N-dimethylpropanamine hydrochloride] | – | comparable to clozapine and chloropromazine |
